Assay results from patent US20250100997A1, “PYRIDAZINYL AMINO DERIVATIVES AS ALK5 INHIBITORS” (CHIESI FARMACEUTICI S.P.A., priority 2022, published 2025).

The compounds below were run against T1, human ALK5 (recombinant TGF β1 N-term GST-tagged, 80-end) (Homo sapiens, UniProt P36897) (assay: ADP-GLO kinase assay, biochemical ALK5 assay). Settings: pIC50 converted to pKi using the Cheng-Prusoff equation, ATP at Km, or high ATP (30-fold Km) for very potent compounds, 25° C.
T1 construct: human ALK5 (recombinant TGF β1 N-term GST-tagged, 80-end); GST (N); purchased
T1 sequence (P36897 80-503 limits assumed): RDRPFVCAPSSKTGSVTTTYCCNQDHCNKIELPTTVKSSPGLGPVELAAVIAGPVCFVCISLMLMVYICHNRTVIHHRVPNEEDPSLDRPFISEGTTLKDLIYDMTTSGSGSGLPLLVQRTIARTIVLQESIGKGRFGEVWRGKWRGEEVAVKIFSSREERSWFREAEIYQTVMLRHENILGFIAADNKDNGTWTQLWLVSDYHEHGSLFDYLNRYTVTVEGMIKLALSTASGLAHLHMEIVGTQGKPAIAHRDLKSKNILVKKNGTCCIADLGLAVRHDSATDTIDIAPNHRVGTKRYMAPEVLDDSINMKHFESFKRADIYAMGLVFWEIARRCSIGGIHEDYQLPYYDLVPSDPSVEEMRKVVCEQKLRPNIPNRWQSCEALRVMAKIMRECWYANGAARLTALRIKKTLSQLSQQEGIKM
Experimental: The enzymatic activity of compounds of the present invention was monitored measuring the formation of ADP using the ADP-GLO Kinases assay. Following the incubation of the purified enzyme, a substrate and ATP, the produced ADP was converted into ATP, which in turn was converted into light by Ultra-Glo Luciferase. The luminescent signal positively correlated with ADP amount and kinase activity. Briefly, the kinase reaction was performed by incubating 2.6 nM of the purified, commercially available human ALK5 (recombinant TGF β1 N-term GST-tagged, 80-end), a final concentration of TGFβ1 peptide 94.5 μM (Promega, T36-58) and ultra-pure ATP (Promega V915B). The ATP concentration was set at the Km value (concentration of substrate which permits the enzyme to achieve half maximal velocity (Vmax)) of ALK5 (0.5 μM). Compound and ALK5 kinase were mixed and incubated for 15 mins. Reactions were initiated by addition of ATP at a final concentration in the assay of […]. After an incubation of 120 min, the reaction was stopped, and ADP production detected with ADP-Glo kit according to manufacturer's indications. To overcome the assay wall limit for very potent compounds the assay protocol was changed by using a high ATP concentration (30-fold Km). Compounds and ALK5 kinase were mixed for 15 min and the reaction initiated by addition of TGFβ1 peptide and ATP at a final concentration in the assay of 15 μM. After an incubation of 60 min, the kinase reaction was stopped, and ADP production detected with ADP-Glo kit according to manufacturer's indications.
All reaction and incubation steps were performed at 25° C. and the assays were performed in 384-well format and validated using a selection of reference compounds tested in 11-point concentration-response curve.
Results were expressed as pIC50 (negative logarithm of IC50) and subsequently converted to pKi (negative logarithm of […]) using the Cheng-Prusoff equation. The higher the value of pKi, the greater the inhibition of ALK5 activity.

| Structure (SMILES) | Ki |
| --- | --- |
| CN1CCN(CCC(=O)Nc2cc(Nc3cc(-c4cc(Cl)ccc4F)nnc3C3CCOC3)ccn2)CC1 (stereo not shown) [Example 21, N-(4-((6-(5-chloro-2-fluorophenyl)-3-(tetrahydrofuran-3-yl)pyridazin-4-yl)amino)pyridin-2-yl)-3-(4-methylpiperazin-1-yl)propanamide] | 0.126 to 0.794 nM |
| CN1CCN(CCC(=O)Nc2cc(Nc3cc(-c4cc(Cl)ccc4F)nnc3C3CCCS3)ccn2)CC1 (stereo not shown) [Example 22, N-(4-((6-(5-chloro-2-fluorophenyl)-3-(tetrahydrothiophen-2-yl)pyridazin-4-yl)amino)pyridin-2-yl)-3-(4-methylpiperazin-1-yl)propanamide] | 0.126 to 0.794 nM |
| CN1CCN(CCC(=O)Nc2cc(Nc3cc(-c4cc(Cl)ccc4F)nnc3C3CC(=O)N(C)C3)ccn2)CC1 (stereo not shown) [Example 23, N-(4-((6-(5-chloro-2-fluorophenyl)-3-(1-methyl-5-oxopyrrolidin-3-yl)pyridazin-4-yl)amino)pyridin-2-yl)-3-(4-methylpiperazin-1-yl)propanamide] | 1 to 3.16 nM |
| Fc1ccc(Cl)cc1-c1cc(Nc2ccc3ncsc3c2)c(C2=CCNCC2)nn1 [Example C1, N-[6-(5-chloro-2-fluorophenyl)-3-(1,2,3,6-tetrahydropyridin-4-yl)pyridazin-4-yl]-1,3-benzothiazol-6-amine, reference compound] | 60.3 nM |
